In paper PMC11423540, “Synthesis and biological evaluation of ortho-phenyl phenylhydroxamic acids containing phenothiazine with improved selectivity for class IIa histone deacetylases” (Journal of Enzyme Inhibition and Medicinal Chemistry, 2024):
Read-outs that look alike come from different tables or passages of the source.

Legend:
SCC2095 cells [1] = experiment: Cell viability (MTT) assay, SCC2095; assay type: cell-based; conditions: 48 h, human oral cancer cells, read-out: IC50 of cytotoxicity SCC2095
Protocol: Human breast cancer MDA-MB-231 cells and gastric cancer SCM-1 cells were purchased from the American Type Culture Collection (Manasas, VA, USA). SCC2095 human oral cancer cells were kindly provided by Professor Susan R. Mallery (The Ohio State University).
To assess cell viability, cells were seeded in three replicates into 96-well plates at a density of 5×10^3/well for 24 h following incubation with compounds at the indicated concentrations. Then, cell viability was assessed with 3–(4,5-dimethylthiazol-2-yl)-2,5-diphenyltetrazolium bromide (MTT) solution (0.5 mg/mL) for 4h as described previously. After removing the medium, 200 µL of DMSO was added, and then the absorbance was measured at 570 nm using a plate reader (BMG LABTECH, Germany).

HDAC4 = HDAC4 (Homo sapiens, UniProt P56524); experiment: HDAC inhibition assay, HDAC4
HDAC4, sequence (P56524 whole entry): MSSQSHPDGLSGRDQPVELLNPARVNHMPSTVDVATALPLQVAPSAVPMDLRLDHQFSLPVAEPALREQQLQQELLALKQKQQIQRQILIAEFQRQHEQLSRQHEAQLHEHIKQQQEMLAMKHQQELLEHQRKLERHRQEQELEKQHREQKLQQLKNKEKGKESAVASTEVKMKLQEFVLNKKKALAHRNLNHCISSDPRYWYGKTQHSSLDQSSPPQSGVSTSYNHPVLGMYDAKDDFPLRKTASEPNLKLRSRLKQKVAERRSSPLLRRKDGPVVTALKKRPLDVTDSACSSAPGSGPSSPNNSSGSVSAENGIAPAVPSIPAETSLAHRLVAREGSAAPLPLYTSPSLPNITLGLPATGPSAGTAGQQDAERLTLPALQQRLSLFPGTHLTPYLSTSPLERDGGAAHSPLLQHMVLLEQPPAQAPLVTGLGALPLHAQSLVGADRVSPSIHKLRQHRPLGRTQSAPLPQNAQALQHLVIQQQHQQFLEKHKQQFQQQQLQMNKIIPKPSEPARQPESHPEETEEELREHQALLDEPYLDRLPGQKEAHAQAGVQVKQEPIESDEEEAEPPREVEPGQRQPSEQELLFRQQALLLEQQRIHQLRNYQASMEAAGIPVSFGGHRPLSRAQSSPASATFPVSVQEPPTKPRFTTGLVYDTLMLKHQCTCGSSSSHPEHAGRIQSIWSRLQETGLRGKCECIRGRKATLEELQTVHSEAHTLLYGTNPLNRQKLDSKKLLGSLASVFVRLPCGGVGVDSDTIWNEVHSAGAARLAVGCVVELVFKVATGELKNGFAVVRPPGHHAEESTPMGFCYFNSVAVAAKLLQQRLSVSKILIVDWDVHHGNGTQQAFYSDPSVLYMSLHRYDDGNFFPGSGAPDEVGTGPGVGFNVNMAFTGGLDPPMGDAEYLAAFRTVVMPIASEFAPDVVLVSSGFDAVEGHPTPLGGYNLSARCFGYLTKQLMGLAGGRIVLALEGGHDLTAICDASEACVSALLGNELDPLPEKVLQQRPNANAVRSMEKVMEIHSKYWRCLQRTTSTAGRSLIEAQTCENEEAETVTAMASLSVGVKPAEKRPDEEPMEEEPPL

HDAC7 = biological target: T1, HDAC7 (Homo sapiens, UniProt Q8WUI4); experiment: HDAC inhibition assay, HDAC7
T1 sequence (Q8WUI4 1-952): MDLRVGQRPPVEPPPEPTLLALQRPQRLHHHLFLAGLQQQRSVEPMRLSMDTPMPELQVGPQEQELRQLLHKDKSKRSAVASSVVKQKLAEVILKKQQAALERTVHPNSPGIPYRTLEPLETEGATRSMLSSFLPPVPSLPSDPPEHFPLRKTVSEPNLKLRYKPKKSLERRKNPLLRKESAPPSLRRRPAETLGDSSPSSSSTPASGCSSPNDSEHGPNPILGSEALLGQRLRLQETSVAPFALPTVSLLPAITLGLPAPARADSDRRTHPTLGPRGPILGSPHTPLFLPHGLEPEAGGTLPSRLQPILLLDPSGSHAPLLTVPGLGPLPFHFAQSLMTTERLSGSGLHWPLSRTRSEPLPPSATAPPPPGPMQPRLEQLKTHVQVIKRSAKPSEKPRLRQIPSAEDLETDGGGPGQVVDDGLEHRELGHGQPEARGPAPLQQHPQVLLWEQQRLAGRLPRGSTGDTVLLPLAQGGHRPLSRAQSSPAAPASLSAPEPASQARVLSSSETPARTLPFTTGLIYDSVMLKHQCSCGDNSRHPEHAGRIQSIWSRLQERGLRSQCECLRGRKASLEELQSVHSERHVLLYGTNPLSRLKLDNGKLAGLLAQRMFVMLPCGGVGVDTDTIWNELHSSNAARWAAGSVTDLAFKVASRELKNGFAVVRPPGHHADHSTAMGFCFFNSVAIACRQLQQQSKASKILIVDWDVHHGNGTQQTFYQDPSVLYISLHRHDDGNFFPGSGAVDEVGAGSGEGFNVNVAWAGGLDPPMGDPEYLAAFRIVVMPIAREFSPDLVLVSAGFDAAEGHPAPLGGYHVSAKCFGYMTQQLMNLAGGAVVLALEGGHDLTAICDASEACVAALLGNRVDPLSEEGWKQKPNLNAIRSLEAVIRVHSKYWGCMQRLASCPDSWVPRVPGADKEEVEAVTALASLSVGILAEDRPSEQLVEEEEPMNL

HDAC9 = HDAC9 (Homo sapiens, UniProt Q9UKV0); experiment: HDAC inhibition assay, HDAC9
HDAC9, sequence (Q9UKV0 whole entry): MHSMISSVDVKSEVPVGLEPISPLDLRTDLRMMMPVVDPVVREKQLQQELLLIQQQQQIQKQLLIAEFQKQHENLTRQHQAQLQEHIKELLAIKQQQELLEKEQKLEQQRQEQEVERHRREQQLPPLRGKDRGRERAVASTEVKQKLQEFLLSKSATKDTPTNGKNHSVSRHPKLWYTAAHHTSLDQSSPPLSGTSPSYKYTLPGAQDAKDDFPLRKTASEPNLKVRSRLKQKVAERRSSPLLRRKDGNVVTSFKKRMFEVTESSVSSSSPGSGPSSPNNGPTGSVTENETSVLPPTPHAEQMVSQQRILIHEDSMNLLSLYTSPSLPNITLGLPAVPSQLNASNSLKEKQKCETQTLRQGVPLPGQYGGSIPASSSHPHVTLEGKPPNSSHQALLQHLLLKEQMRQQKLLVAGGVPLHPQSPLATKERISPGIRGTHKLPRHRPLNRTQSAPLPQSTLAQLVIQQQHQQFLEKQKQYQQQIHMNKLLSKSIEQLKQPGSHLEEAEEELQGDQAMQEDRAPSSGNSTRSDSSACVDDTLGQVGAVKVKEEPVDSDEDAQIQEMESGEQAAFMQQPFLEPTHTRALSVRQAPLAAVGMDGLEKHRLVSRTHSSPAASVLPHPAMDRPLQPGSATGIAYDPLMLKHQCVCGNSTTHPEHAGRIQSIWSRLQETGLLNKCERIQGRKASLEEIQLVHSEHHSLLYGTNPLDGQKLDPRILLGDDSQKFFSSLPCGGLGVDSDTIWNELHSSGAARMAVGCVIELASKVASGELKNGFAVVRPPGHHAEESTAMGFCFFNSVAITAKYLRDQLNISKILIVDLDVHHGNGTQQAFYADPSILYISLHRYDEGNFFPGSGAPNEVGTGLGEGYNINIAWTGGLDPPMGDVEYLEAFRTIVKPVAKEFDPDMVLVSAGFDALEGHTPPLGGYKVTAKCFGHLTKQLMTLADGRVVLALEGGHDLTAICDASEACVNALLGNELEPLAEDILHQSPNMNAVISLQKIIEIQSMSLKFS

HDAC6 = biological target: T2, HDAC6 (Homo sapiens, UniProt Q9UBN7); experiment: HDAC inhibition assay, HDAC6
T2 sequence (Q9UBN7 1-1215): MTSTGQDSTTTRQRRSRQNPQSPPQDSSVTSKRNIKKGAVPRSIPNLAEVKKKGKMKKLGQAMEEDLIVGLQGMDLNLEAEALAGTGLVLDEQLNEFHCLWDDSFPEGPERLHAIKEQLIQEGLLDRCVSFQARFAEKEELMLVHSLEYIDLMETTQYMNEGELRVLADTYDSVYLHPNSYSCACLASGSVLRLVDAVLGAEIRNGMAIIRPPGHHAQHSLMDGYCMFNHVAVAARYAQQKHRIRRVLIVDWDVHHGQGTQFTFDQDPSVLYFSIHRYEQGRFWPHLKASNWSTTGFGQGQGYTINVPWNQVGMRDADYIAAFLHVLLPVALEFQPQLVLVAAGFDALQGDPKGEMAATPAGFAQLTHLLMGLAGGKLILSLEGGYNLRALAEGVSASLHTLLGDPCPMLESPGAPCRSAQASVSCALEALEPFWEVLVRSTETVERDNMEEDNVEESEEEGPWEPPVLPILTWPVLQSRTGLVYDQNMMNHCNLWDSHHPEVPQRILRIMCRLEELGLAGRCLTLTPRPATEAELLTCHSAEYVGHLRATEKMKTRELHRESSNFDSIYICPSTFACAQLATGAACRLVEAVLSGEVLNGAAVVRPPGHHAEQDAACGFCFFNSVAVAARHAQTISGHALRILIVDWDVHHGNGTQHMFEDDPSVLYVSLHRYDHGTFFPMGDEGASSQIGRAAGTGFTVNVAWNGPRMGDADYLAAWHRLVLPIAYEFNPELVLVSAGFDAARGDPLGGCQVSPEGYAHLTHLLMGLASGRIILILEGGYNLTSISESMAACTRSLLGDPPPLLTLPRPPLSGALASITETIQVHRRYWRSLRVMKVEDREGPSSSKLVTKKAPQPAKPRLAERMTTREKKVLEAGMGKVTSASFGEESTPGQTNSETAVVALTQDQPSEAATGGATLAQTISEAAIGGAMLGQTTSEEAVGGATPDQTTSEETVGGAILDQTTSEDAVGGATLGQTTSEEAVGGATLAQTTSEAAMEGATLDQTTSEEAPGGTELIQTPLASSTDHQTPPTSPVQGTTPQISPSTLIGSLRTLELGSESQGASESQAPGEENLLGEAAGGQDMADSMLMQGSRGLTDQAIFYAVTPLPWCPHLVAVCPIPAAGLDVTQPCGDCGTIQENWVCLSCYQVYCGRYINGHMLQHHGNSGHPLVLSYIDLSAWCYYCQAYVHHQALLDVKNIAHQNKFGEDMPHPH

HeLa nuclear HDACs = experiment: HDAC inhibition assay, HeLa nuclear extract (mixture of class I HDACs 1, 2, and 3); conditions: read-out: IC50 HeLa nuclear HDACs, Boc-Lys-(AMC) substrate
SCC2095 cells [2] = experiment: ROS determination by flow cytometry (DCFH-DA probe); assay type: cell-based, human; conditions: SCC2095, 12 h or 24 h
Protocol: Cells (2 × 10^5) were treated with tested compounds in 6-well plates for 24 h or 48 h, then washed with ice-cold PBS twice and harvested with trypsin. Cells were incubated with 5 µL Annexin V- FITC/PI (BD Pharmingen, San Diego) for 15 min in the dark condition. Then, the cells were measured by BD FACSCanto flow cytometer (BD, Franklin Lakes, NJ). For ROS determination, DMSO or H2O2 or compound 7 g-treated cells were stained with the ROS probe (DCFH-DA; 5 µM) and detected the DCFH-DA fluorescence.

SCC2095 cells [3] = experiment: Western blotting of caspase- and HDAC-related proteins; assay type: cell-based, human; conditions: SCC2095, DNA damage biomarker, western blot
Protocol: The protein expression was performed as previously described. Proteins were resolved on 10% SDS-PAGE, then transferred to PVDF (Bio-Rad) membranes. After blocking with 5% skimmed milk in PBS containing 0.1% Tween 20, the membranes were probed with primary antibodies against interest target proteins at 4 °C overnight. The following primary antibodies were used: […], cleaved caspase 9, acetyl α-tubulin, Hsp90, Histone H2A.X, p38, p-^180Thr/^182Tyr p38, PPARγ, and p21 were purchased from Cell Signalling Technologies (Beverly, MA, USA); pro-caspase 8, Millipore; β-actin, Sigma-Aldrich (St. Louis, MO, USA). Then, the immunoblots were washed and exposed to HRP-conjugated secondary antibodies at room temperature for 1 h. The immunoblots were examined by enhanced chemiluminescence.

SMILES | IC50 (HDAC4) [µM] | IC50 (HDAC7) [µM] | IC50 (HDAC9) [µM] | IC50 (HDAC6) [µM] | IC50 (HeLa nuclear HDACs) [µM] | HDAC6 inhibitory activity, fold less potent than LH4f (HDAC6; versus LH4f) [fold] | IC50 (SCC2095 cells [1]; Homo sapiens) [µM] | IC50 (SCC2095 cells [1]) [µM] | ROS generation (SCC2095 cells [2]) | phosphorylation of Histone H2A.X (SCC2095 cells [3])
COc1cc([C@@H]2c3cc4c(cc3[C@@H](O[C@@H]3O[C@@H]5CO[C@@H](C)O[C@H]5[C@H](O)[C@H]3O)[C@H]3COC(=O)[C@H]23)OCO4)cc(OC)c1O [Etoposide, reference compound] | – | – | – | – | – | – | 3.3 ± 0.5 | 2.3 | – | –
O=C(NO)c1ccc(CNC23CC4CC(CC(C4)C2)C3)cc1-c1ccccc1 [Compound 7i, N-Hydroxy-4-[(adamantan-1-ylamino)methyl]-2-phenylbenzamide] | 18.7 ± 2.16 | 12.9 ± 2.14 | 23.7 ± 4.14 | > 40 | > 40 | – | > 10 | – | – | –
COc1ccc(-c2cc(CN3c4ccccc4Sc4ccc(C#N)cc43)ccc2C(=O)NO)cc1 [Compound 19b, N-Hydroxy-4-[(2-cyano-10H-phenothiazin-10-yl)methyl]-2–(4-methoxyphenyl)benzamide] | 6.28 ± 0.13 | 4.03 ± 0.16 | 5.34 ± 0.4 | 4.03 ± 0.25 | > 40 | – | 1.8 | – | – | –
O=C(NO)c1ccc(CN2CCCc3ccccc3C2)cc1-c1ccccc1 [Compound 7j, N-Hydroxy-4-[(1,3,4,5-tetrahydro-2H-benzo[c]azepin-2-yl)methyl]-2-phenylbenzamide] | 0.91 ± 0.07 | 0.84 ± 0.03 | 0.95 ± 0.05 | 18.22 ± 0.02 | > 40 | – | > 10 | – | – | –
COc1ccc2c(c1)N(Cc1ccc(C(=O)NO)c(-c3ccccc3)c1)c1ccccc1S2 [Compound 7d, N-Hydroxy-4-[(2-methoxy-10H-phenothiazin-10-yl)methyl]-2-phenylbenzamide] | 0.8 ± 0.01 | 0.71 ± 0.12 | 0.64 ± 0.08 | 3.68 ± 0.41 | > 40 | – | 3.2 | – | – | –
O=C(NCC1(c2nc(-c3ccccc3)cs2)CCOCC1)c1cccc(-c2noc(C(F)(F)F)n2)c1 [TMP269, reference compound] | – | – | – | – | – | – | 18.1 ± 3.8 | – | increased | increased
COc1cc(-c2cc(CN3c4ccccc4Sc4ccc(C#N)cc43)ccc2C(=O)NO)cc(OC)c1OC [Compound 19a, N-Hydroxy-4-[(2-cyano-10H-phenothiazin-10-yl)methyl]-2–(3,4,5-trimethoxyphenyl)benzamide] | > 40 | 17.9 ± 0.92 | 18.6 ± 0.96 | 7.6 ± 0.36 | > 40 | – | 7.6 | – | – | –
N#Cc1ccc2c(c1)N(Cc1ccc(C(=O)NO)c(-c3ccc(F)cc3)c1)c1ccccc1S2 [Compound 19c, N-Hydroxy-4-[(2-cyano-10H-phenothiazin-10-yl)methyl]-2–(4-fluorophenyl)benzamide] | 1 ± 0.03 | 0.54 ± 0.06 | 0.72 ± 0.03 | 4.22 ± 0.18 | > 40 | – | 2.6 | – | – | –

Further lines, with some results ahead:

IC50 (HDAC4) [µM] | IC50 (HDAC7) [µM] | IC50 (HDAC9) [µM] | IC50 (HDAC6) [µM] | IC50 (HeLa nuclear HDACs) [µM] | HDAC6 inhibitory activity, fold less potent than LH4f (HDAC6; versus LH4f) [fold] | SMILES | IC50 (SCC2095 cells [1]; Homo sapiens) [µM] | IC50 (SCC2095 cells [1]) [µM] | ROS generation (SCC2095 cells [2]) | phosphorylation of Histone H2A.X (SCC2095 cells [3])
0.48 ± 0.04 | 0.71 ± 0.01 | 0.42 ± 0.06 | 3.2 ± 0.77 | > 40 | – | O=C(NO)c1ccc(CN2c3ccccc3Sc3ccccc32)cc1-c1ccccc1 [Compound 7a, N-Hydroxy-4-[(10H-phenothiazin-10-yl)methyl]-2-phenylbenzamide] | 3.9 | – | – | –
0.28 ± 0.03 | 0.23 ± 0.02 | 0.2 ± 0.01 | 2.12 ± 0.37 | > 40 | – | O=C(NO)c1ccc(CN2c3ccccc3Sc3ccc(Cl)cc32)cc1-c1ccccc1 [Compound 7b, N-Hydroxy-4-[(2-chloro-10H-phenothiazin-10-yl)methyl]-2-phenylbenzamide] | 5 | – | – | –
0.2 ± 0.05 | 0.16 ± 0.01 | 0.11 ± 0.01 | 0.75 ± 0.06 | > 40 | 150 | NC(=O)c1ccc2c(c1)N(Cc1ccc(C(=O)NO)c(-c3ccccc3)c1)c1ccccc1S2 [Compound 7h] | 3.6 | – | – | –
0.58 ± 0.07 | 0.41 ± 0.02 | 0.32 ± 0.07 | 1.61 ± 0.09 | > 40 | – | CC(=NO)c1ccc2c(c1)N(Cc1ccc(C(=O)NO)c(-c3ccccc3)c1)c1ccccc1S2 [Compound 7f, N-Hydroxy-4-{2-[1-(hydroxyimino)ethyl]-10H-phenothiazin-10-yl}methyl-2-phenylbenzamide] | 4.6 | – | – | –
0.28 ± 0.04 | 0.23 ± 0.05 | 0.27 ± 0.02 | 3.19 ± 0.11 | > 40 | – | O=C(NO)c1ccc(CN2c3ccccc3Sc3ccc(C(F)(F)F)cc32)cc1-c1ccccc1 [Compound 7c, N-Hydroxy-4-{[2-(trifluoromethyl)-10H-phenothiazin-10-yl]methyl}-2-phenylbenzamide] | 6 | – | – | –
